According to the supplement of paper PMC11061612:

How the values were obtained:
Assay in all cases: combination Emax (second highest fraction inhibited in the dose matrix, 72 h); higher = more inhibition; extreme values may be limits of the assay
[1] = test system: JHU-022 (Oral Cavity Carcinoma)
In short: (§1)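 Bliss excess equals the observed combination effect minus the expected value EA + EB − EA·EB, where EA and EB are the effects of each agent alone. Combination Emax is the second-highest inhibition within the matrix. Inhibition was scaled from CellTiter-Glo 2.0 luminescence, with 0 set by vehicle wells and 1 by blank wells, after 72 hours of two-drug dosing of cells plated in 1536-well plates.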

[2] = test system: DMS-53 (Small Cell Lung Carcinoma)
In short: as §1

[3] = test system: CESS (Acute Myeloid Leukemia)
In short: as §1

[4] = test system: MDA-MB-436 (Breast Carcinoma)
In short: as §1

[5] = test system: NCI-H716 (Colorectal Carcinoma)
In short: as §1

[6] = test system: AU565 (Breast Carcinoma)
In short: as §1

[7] = test system: NCI-H2228 (Lung Adenocarcinoma)
In short: as §1

[8] = test system: GCT (Other Solid Carcinomas)
In short: as §1

[9] = test system: LS-411N (Colorectal Carcinoma)
In short: as §1

[10] = test system: JIMT-1 (Breast Carcinoma)
In short: as §1

[11] = test system: GA-10 (Burkitt's Lymphoma)
In short: as §1

[12] = test system: EW-7 (Ewing's Sarcoma)
In short: as §1

[13] = test system: ESO26 (Esophageal Adenocarcinoma)
In short: as §1

[14] = test system: HCC1395 (Breast Carcinoma)
In short: as §1

[15] = test system: KP-N-YN (Neuroblastoma)
In short: as §1

[16] = test system: NCI-H2087 (Lung Adenocarcinoma)
In short: as §1

[17] = test system: JHH-2 (Hepatocellular Carcinoma)
In short: as §1

[18] = test system: UACC-812 (Breast Carcinoma)
In short: as §1

[19] = test system: NCI-H1703 (Squamous Cell Lung Carcinoma)
In short: as §1

[20] = test system: KYSE-220 (Esophageal Squamous Cell Carcinoma)
In short: as §1

SMILES | combination Emax [1] | combination Emax [2] | combination Emax [3] | combination Emax [4] | combination Emax [5] | combination Emax [6] | combination Emax [7] | combination Emax [8] | combination Emax [9] | combination Emax [10] | combination Emax [11] | combination Emax [12] | combination Emax [13] | combination Emax [14] | combination Emax [15] | combination Emax [16] | combination Emax [17] | combination Emax [18] | combination Emax [19] | combination Emax [20]
CN(C)CCCOc1ccc(-c2ccc3ncc4c(c3c2)n(C2CCOCC2)c(=O)n4C)cn1 [AZD0156] + C=CCn1c(=O)c2cnc(Nc3ccc(N4CCN(C)CC4)cc3)nc2n1-c1cccc(C(C)(C)O)n1 [AZD1775] (first compound max 1 µM, partner max 1 µM) | 0.36 | 0.148 | 0.929 | 0.195 | 0.482 | 0.454 | 0.5 | 0.413 | 0.641 | 0.488 | 0.988 | 0.884 | 0.458 | 0.682 | 0.95 | 0.332 | 0.53 | 0.156 | 0.967 | 0.812
COc1cccc(OCCCN)c1-c1cc(Nc2cnc(C#N)cn2)n[nH]1 [Prexasertib] + C=CCn1c(=O)c2cnc(Nc3ccc(N4CCN(C)CC4)cc3)nc2n1-c1cccc(C(C)(C)O)n1 [AZD1775] (first compound max 1 µM, partner max 1 µM) | 0.624 | 0.473 | 0.966 | 0.599 | 0.664 | 0.891 | 0.719 | 0.644 | 0.759 | 0.869 | 1 | 0.962 | 0.649 | 0.903 | 0.994 | 0.804 | 0.9 | 0.662 | 0.985 | 0.973
Cc1c2c(nn1C)CSCc1cc(n(C)n1)CSc1cc(c3ccccc3c1)OCCCc1c(C(=O)O)n(C)c3c-2c(Cl)ccc13 [AZD5991] + C[C@@H]1COCCN1C2=NC(=NC(=C2)C3(CC3)[S@](=N)(=O)C)C4=C5C=CNC5=NC=C4 [AZD6738] (first compound max 1 µM, 7x7, partner max 10 µM) | 0.492 | 0.616 | 0.958 | 0.334 | 0.574 | 1 | 0.433 | 0.411 | 0.772 | 0.723 | 0.998 | 0.998 | 0.544 | 0.918 | 0.968 | 0.588 | 0.703 | 0.674 | 0.961 | 0.877
Cc1c2c(nn1C)CSCc1cc(n(C)n1)CSc1cc(c3ccccc3c1)OCCCc1c(C(=O)O)n(C)c3c-2c(Cl)ccc13 [AZD5991] + Cc1cc2ncnn2cc1Nc1ncc2c(n1)n(C1CCOCC1)c(=O)n2C [AZD7648] (first compound max 1 µM, 7x7, partner max 10 µM) | 0.245 | 0.554 | 0.416 | 0.226 | 0.228 | 1 | 0.354 | 0.352 | 0.116 | 0.255 | 0.851 | 0.652 | 0.198 | 0.545 | 0.228 | 0.187 | 0.596 | 0.488 | 0.891 | 0.218
COc1cccc(OCCCN)c1-c1cc(Nc2cnc(C#N)cn2)n[nH]1 [Prexasertib] + CN(C)CCCOc1ccc(-c2ccc3ncc4c(c3c2)n(C2CCOCC2)c(=O)n4C)cn1 [AZD0156] (first compound max 1 µM, 7x7, partner max 1 µM) | 0.659 | 0.275 | 0.975 | 0.41 | 0.662 | 0.714 | 0.664 | 0.324 | 0.782 | 0.869 | 1 | 0.981 | 0.571 | 0.857 | 0.999 | 0.761 | 0.837 | 0.537 | 0.966 | 0.925
Cn1cnc2c(F)c(Nc3ccc(Br)cc3Cl)c(C(=O)NOCCO)cc21 [Selumetinib] + C[C@@H]1COCCN1C2=NC(=NC(=C2)C3(CC3)[S@](=N)(=O)C)C4=C5C=CNC5=NC=C4 [AZD6738] (first compound max 10 µM, 7x7, partner max 10 µM) | 0.567 | 0.151 | 0.815 | 0.243 | 0.577 | 0.315 | 0.405 | 0.373 | 0.808 | 0.491 | 0.977 | 0.951 | 0.486 | 0.571 | 0.949 | 0.661 | 0.641 | 0.319 | 0.881 | 0.753
COc1cccc(OCCCN)c1-c1cc(Nc2cnc(C#N)cn2)n[nH]1 [Prexasertib] + O=C(c1cc(Cc2n[nH]c(=O)c3ccccc23)ccc1F)N1CCN(C(=O)C2CC2)CC1 [Olaparib] (first compound max 1 µM, 7x7, partner max 10 µM) | 0.637 | 0.314 | 0.972 | 0.509 | 0.616 | 0.735 | 0.726 | 0.633 | 0.498 | 0.788 | 0.987 | 0.955 | 0.56 | 0.88 | 0.845 | 0.784 | 0.9 | 0.558 | 0.978 | 0.947
COc1nnc2ccc(N3CCC(c4ccc(OCCN5CCN(C)C(=O)[C@H]5C)cc4)CC3)nn12 [AZD5153] + Cn1cnc2c(F)c(Nc3ccc(Br)cc3Cl)c(C(=O)NOCCO)cc21 [Selumetinib] (first compound max 1 µM, 7x7, partner max 10 µM) | 0.508 | 0.426 | 0.606 | 0.217 | 0.879 | 0.328 | 0.428 | 0.59 | 0.997 | 0.426 | 0.714 | 0.357 | 0.709 | 0.305 | 0.369 | 0.631 | 0.427 | 0.331 | 0.626 | 0.808
COc1cccc(OCCCN)c1-c1cc(Nc2cnc(C#N)cn2)n[nH]1 [Prexasertib] + Cc1cc2ncnn2cc1Nc1ncc2c(n1)n(C1CCOCC1)c(=O)n2C [AZD7648] (first compound max 1 µM, 7x7, partner max 10 µM) | 0.634 | 0.293 | 0.971 | 0.431 | 0.662 | 0.745 | 0.682 | 0.36 | 0.753 | 0.864 | 1 | 0.971 | 0.504 | 0.855 | 0.992 | 0.801 | 0.891 | 0.546 | 0.951 | 0.935
COc1nnc2ccc(N3CCC(c4ccc(OCCN5CCN(C)C(=O)[C@H]5C)cc4)CC3)nn12 [AZD5153] + CC1(C)CCC(CN2CCN(c3ccc(C(=O)NS(=O)(=O)c4ccc(NCC5CCOCC5)c([N+](=O)[O-])c4)c(Oc4cnc5[nH]ccc5c4)c3)CC2)=C(c2ccc(Cl)cc2)C1 [Venetoclax] (first compound max 1 µM, 7x7, partner max 1 µM) | 0.417 | 0.887 | 0.638 | 0.227 | 0.615 | 0.311 | 0.288 | 0.595 | 0.728 | 0.311 | 0.693 | 0.334 | 0.648 | 0.411 | 0.673 | 0.389 | 0.357 | 0.261 | 0.655 | 0.617
CC1(C)CCC(CN2CCN(c3ccc(C(=O)NS(=O)(=O)c4ccc(NCC5CCOCC5)c([N+](=O)[O-])c4)c(Oc4cnc5[nH]ccc5c4)c3)CC2)=C(c2ccc(Cl)cc2)C1 [Venetoclax] + COc1cc(Nc2ncc3c(n2)-c2ccc(Cl)cc2C(c2c(F)cccc2OC)=NC3)ccc1C(=O)O [Alisertib] (first compound max 1 µM, 7x7, partner max 10 µM) | 0.382 | 0.809 | 0.89 | 0.246 | 0.82 | 0.504 | 0.396 | 0.463 | 0.0718 | 0.268 | 0.995 | 0.932 | 0.198 | 0.688 | 0.827 | 0.177 | 0.525 | 0.224 | 0.554 | 0.379
CC1(C)CCC(CN2CCN(c3ccc(C(=O)NS(=O)(=O)c4ccc(NCC5CCOCC5)c([N+](=O)[O-])c4)c(Oc4cnc5[nH]ccc5c4)c3)CC2)=C(c2ccc(Cl)cc2)C1 [Venetoclax] + C=CCn1c(=O)c2cnc(Nc3ccc(N4CCN(C)CC4)cc3)nc2n1-c1cccc(C(C)(C)O)n1 [AZD1775] (first compound max 1 µM, partner max 1 µM) | 0.388 | 0.694 | 0.966 | 0.231 | 0.377 | 0.672 | 0.494 | 0.431 | 0.55 | 0.573 | 1 | 0.974 | 0.682 | 0.81 | 0.981 | 0.401 | 0.882 | 0.0382 | 0.977 | 0.832
C=CCn1c(=O)c2cnc(Nc3ccc(N4CCN(C)CC4)cc3)nc2n1-c1cccc(C(C)(C)O)n1 [AZD1775] + O=C(c1cc(Cc2n[nH]c(=O)c3ccccc23)ccc1F)N1CCN(C(=O)C2CC2)CC1 [Olaparib] (first compound max 1 µM, partner max 10 µM) | 0.432 | 0.148 | 0.916 | 0.271 | 0.378 | 0.449 | 0.592 | 0.501 | 0.417 | 0.558 | 0.981 | 0.82 | 0.474 | 0.719 | 0.723 | 0.493 | 0.574 | 0.14 | 0.962 | 0.857
